In ChEMBL document CHEMBL1201862, “PubChem BioAssay data set” (2004):
Active and inactive are the calls of the source.

Experiments:
[1] = biological target: T1, Aryl hydrocarbon receptor (Homo sapiens, UniProt P35869); assay: Luminescence-based cell-based high throughput dose response assay for activators of the Aryl Hydrocarbon Receptor (AHR). [Related pubchem assays: 2796 (Primary screen (AHR activators in singlicate)), 2845 (Confirmation screen (AHR activators in triplicate)), 434939 (Counterscreen (PXR activators in triplicate)), 2804 (Summary (AHR activators))]; type: ADME
T1 sequence (P35869 whole entry): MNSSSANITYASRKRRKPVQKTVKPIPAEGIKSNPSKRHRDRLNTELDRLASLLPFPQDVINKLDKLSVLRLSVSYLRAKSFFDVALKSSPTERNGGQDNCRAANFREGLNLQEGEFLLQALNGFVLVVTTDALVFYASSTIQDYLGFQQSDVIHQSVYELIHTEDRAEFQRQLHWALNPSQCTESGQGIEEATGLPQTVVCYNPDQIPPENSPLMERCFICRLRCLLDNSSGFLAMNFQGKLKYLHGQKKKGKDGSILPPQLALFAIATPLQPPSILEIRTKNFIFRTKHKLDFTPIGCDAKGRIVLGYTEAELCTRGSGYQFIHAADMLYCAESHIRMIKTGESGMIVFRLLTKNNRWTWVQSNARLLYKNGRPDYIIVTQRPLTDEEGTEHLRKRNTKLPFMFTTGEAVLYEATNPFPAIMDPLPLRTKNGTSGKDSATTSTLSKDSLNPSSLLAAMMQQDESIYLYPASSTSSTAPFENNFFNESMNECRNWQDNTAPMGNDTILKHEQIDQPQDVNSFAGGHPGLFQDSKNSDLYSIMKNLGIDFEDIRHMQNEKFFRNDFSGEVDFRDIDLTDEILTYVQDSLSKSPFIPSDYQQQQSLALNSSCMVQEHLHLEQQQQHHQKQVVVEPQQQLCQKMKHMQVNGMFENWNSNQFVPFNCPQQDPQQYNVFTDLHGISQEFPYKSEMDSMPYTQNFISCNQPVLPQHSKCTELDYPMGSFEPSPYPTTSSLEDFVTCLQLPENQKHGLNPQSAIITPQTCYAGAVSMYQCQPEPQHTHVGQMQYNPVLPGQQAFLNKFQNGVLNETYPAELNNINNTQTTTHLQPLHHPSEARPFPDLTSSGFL

[2] = inhibitors of Vif binding to APOBEC3G peptide, primary screen, biochemical, TR-FRET, GST-Vif 1-94, biotin-A3G peptide, dose response retest (AID 1117319); type: functional;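 also: TR-FRET signal of purified GST-Vif binding a biotinylated A3G peptide; inhibitors lower the FRET signal by blocking Vif and A3G binding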
[3] = HepG2 cell cytotoxicity, dose response, cytotoxicity control for Shn3 inhibitor project, CellTiter-Glo, cherry-picked (AID 624134); type: functional, cell-based
[4] = control 3'UTR Renilla luciferase suppression, dose response, counter-screen for Shn3 inhibitor project, cell-based, Clone20-Shn3RL, cherry-picked (AID 624133); type: functional
INS1 = assay: beta cell apoptosis inhibitors, cytokine rescue, dose response, luminescence, retest (AID 449756); type: functional, cell-based; conditions: Rattus norvegicus;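 also: cell death triggered by IL-1 beta plus TNF-alpha plus IFN-gamma mixture; protective hits raise ATP signal compared with cytokine alone wells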
Jurkat = assay: antigen receptor-induced NF-kB inhibitors, dose response, Jurkat, luciferase reporter, luminescence, B- and T-cell (AID 489004); type: functional, cell-based; conditions: Homo sapiens;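 also: NF-kB luciferase reporter Jurkat cells stimulated with PMA plus ionomycin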
[5] = Shn3 3'UTR reporter inhibitors, dose response, cell-based, Clone20 osteoblasts, firefly luciferase, cherry-picked (AID 624132); type: functional;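 also: firefly luciferase luminescence from reporter carrying the Shn3 3'UTR in osteoblasts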
[6] = cytotoxicity in HEK-293T NF-kB-Luc cells, dose response, cytotoxicity control for B/T-cell NF-kB inhibitor project, cell-based, uHTS hits (AID 489019); type: functional;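 also: IC50 reflects cytotoxicity as loss of cell viability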
[7] = biological target: T2, Microphthalmia-associated transcription factor (Homo sapiens, UniProt O75030); assay: TRPM1 promoter luciferase signal decrease, dose response, MITF inhibitor project, cell-based, SK-MEL-5, cherry-picked, set 3 (AID 493073); type: functional
T2 sequence (O75030 whole entry): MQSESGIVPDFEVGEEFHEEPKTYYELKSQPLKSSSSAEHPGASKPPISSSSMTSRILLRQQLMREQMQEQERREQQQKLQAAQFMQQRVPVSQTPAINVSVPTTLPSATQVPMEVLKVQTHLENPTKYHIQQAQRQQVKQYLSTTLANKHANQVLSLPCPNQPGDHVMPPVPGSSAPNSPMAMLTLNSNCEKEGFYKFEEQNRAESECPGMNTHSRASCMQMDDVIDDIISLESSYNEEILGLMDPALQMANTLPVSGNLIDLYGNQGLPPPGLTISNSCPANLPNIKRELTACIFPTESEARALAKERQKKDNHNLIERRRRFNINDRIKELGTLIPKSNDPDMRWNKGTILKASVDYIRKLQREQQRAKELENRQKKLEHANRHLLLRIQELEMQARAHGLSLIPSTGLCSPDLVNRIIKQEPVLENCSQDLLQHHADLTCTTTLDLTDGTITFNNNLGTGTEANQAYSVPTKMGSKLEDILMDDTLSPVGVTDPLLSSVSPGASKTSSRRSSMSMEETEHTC

[8] = biological target: T3, COUP transcription factor 2 (Homo sapiens, UniProt P24468); assay: Luminescence-based cell-based high throughput dose response assay to identify inhibitors of COUP-TFII (NR2F2).; type: functional;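 also: HEK293 cells transiently cotransfected with COUP-TFII expression vector and reporter; luciferase reporter luminescence driven by COUP-TFII from the pX2-168 reporter plasmid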
T3 sequence (P24468 whole entry): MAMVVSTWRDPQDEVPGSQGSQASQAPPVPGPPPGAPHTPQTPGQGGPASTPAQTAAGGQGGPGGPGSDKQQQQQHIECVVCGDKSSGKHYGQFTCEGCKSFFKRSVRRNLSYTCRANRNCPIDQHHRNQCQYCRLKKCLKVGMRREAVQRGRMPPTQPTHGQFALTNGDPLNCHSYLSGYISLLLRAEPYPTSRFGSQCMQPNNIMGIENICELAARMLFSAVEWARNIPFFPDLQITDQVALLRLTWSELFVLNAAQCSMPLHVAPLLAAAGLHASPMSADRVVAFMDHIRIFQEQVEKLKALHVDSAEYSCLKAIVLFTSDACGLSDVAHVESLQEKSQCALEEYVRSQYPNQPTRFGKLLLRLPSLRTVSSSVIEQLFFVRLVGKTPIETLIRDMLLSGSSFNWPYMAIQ

[9] = inhibitors of clade B AD8 Env fusion, dose response, cell-based, cherry-pick (AID 652062); type: functional;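 also: luciferase signal from cell-cell fusion driven by HIV-1 clade B AD8 Env; potency is for inhibitors of fusion seen as a drop in luminescence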
[10] = ZM109 Env clade C HIV-1 fusion inhibitors, dose response, HeLa effector, CEM target cells, luciferase, cherry-pick (AID 652058); type: functional, cell-based
[11] = inhibitors of HIV Env-driven cell fusion, dose response, cherry-pick (AID 652057); type: functional, cell-based
[12] = off-target signal loss in HeLa-CEM21 co-culture – HeLa F-luc CTL cells, cherry-picked, counter-screen for HIV-1 Env fusion inhibitor project, dose response (AID 652040); type: functional, cell-based;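 also: potency for signal decrease marking cytotoxic or nonspecific inhibition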
Vero = assay: host cell cytotoxicity of antiviral hits, dose response, cytotoxicity control for West Nile virus antiviral project, secondary assay (AID 1650); type: functional; conditions: Chlorocebus sabaeus
[13] = inhibitors of intracellular T. cruzi replication, confirmation, NIH3T3 host cells, beta-gal luminescence (AID 2044); type: functional, cell-based;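 also: intracellular parasites grown in NIH/3T3 mouse fibroblasts as host cells; luminescent beta-galactosidase reporter signal from transgenic T. cruzi replicating inside host cells; inhibitors lower the luminescence signal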
[14] = Luminescence Cell-Based Dose Response HTS to Identify Activators of Luciferase Translation or Activity in H4 […] Cells. [Related pubchem assays: 1829 (Project Summary), 1814 (Primary HTS)]; type: functional
H4 = assay: Luminescence Cell-Based Dose Response HTS to Identify Activators of 5'UTR Stem-Loop Driven Prion Protein mRNA Translation in H4 Neuroglioblastoma Cells. [Related pubchem assays: 1829 (Project Summary), 1814 (Primary HTS)]; type: functional; conditions: Homo sapiens
[15] = Vero cell cytotoxicity, dose response, cytotoxicity control for Vif-APOBEC3G degradation inhibitor project, Vero cells (AID 1117358); type: functional; conditions: Human immunodeficiency virus 1, Vero
[16] = cytotoxicity toward NIH3T3 fibroblasts, dose response, counter-screen, cell-based, ATP luminescence, mouse fibroblasts (AID 2010); type: functional;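 also: cells exposed to compound for about 90 hours before reading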
[17] = Luminescence Cell-Based Dose Confirmation HTS to Identify Activators of 5'UTR Stem-Loop Driven Alpha-Synuclein mRNA Translation in H4 Neuroglioblastoma Cells. [Related pubchem assays: 1829 (Project Summary), 1814 (Primary HTS)]; type: functional
Leucine aminopeptidase = biological target: T4, Leucine aminopeptidase (Plasmodium falciparum 3D7, UniProt Q8IL11); assay: P. falciparum M17LAP inhibitors, primary screen, biochemical, fluorogenic H-Leu-NHMec substrate, 1536-well (AID 1619); type: functional
T4 sequence (Q8IL11 whole entry): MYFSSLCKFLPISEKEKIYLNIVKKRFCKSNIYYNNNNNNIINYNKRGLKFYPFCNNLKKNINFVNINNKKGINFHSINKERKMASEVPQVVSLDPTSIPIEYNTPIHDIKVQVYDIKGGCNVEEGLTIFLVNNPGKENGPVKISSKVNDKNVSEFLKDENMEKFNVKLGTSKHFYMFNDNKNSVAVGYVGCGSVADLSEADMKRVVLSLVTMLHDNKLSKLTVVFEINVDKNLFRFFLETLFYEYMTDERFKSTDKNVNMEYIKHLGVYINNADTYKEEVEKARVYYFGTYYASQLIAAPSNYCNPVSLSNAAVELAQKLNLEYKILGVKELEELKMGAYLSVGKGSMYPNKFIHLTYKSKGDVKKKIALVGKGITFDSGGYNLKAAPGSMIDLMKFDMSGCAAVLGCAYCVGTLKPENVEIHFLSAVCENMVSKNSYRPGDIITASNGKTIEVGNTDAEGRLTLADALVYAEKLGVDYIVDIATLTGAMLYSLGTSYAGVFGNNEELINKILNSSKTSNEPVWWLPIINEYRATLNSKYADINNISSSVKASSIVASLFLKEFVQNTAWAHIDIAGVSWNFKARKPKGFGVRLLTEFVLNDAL

[18] = biological target: Heat shock protein HSP 90-alpha (Homo sapiens, UniProt P07900); assay: Luminescence-based dose response biochemical high throughput screening assay for inhibitors of the Heat Shock Protein 90 (HSP90). [Related pubchem assays: 1831 (Summary AID.), 1846 (Confirmation screen.), 1789 (Primary screen.)]
[19] = biological target: FAD-linked sulfhydryl oxidase ALR (Homo sapiens, UniProt P55789); assay: inhibitors of human ALR sulfhydryl oxidase, dose response, biochemical, H2O2 detection, luminescence, cherry-pick (AID 493248)
[20] = biological target: T5, Tyrosine-protein phosphatase non-receptor type 7 (Homo sapiens, UniProt P35236); assay: inhibitors of human HePTP phosphatase, […], biochemical, absorbance, leukemia target (AID 521); type: functional
T5 sequence (P35236 whole entry): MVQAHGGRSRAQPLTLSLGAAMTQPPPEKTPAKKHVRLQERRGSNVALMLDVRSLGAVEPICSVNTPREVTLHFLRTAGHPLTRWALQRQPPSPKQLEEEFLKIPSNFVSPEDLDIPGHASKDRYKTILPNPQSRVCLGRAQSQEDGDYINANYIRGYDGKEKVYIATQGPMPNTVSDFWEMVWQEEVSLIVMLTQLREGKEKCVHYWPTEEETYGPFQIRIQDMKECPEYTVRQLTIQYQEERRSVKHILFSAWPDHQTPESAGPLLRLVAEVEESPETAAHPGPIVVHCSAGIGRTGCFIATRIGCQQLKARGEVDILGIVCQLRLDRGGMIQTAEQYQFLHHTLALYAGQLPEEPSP

Sequence of FAD-linked sulfhydryl oxidase ALR (P55789 whole entry): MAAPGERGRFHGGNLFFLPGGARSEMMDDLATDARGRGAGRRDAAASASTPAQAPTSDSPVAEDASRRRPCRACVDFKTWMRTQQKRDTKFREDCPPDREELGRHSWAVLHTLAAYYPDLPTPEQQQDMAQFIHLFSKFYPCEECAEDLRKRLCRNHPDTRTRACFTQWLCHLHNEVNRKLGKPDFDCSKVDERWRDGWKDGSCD

## O=C(NC(=S)Nc1ccc(F)c(Cl)c1)C1CC1
[1]
  EC50: 0.861 µM (active)

## COc1ccc(S(=O)(=O)NC2CC(C)(C)NC(C)(C)C2)c(C)c1C
[2]
  IC50: > 100 µM (active)

## COc1cc(NC(=O)COc2cc(O)c3c(c2)OC(C)(C)CC3=O)cc(OC)c1OC
[3]
  AC50: 2.04 µM (active)
[4]
  AC50: 0.727 µM (active)
INS1
  AC50: 3.99 µM (active)
Jurkat
  IC50: 39.9 µM (inactive)
[5]
  AC50: 0.354 µM (active)
[6]
  IC50: 69.1 µM (inactive)
[7]
  AC50: 5.36 µM (active)
[8]
  IC50: 2.54 µM (active)

## CN1CCN(c2ccccc2NC(=O)C(Cc2ccccc2)n2cccc2)CC1 (stereo unspecified)
[9]
  AC50: 17.5 µM (active)
[10]
  AC50: 6.39 µM (active)
[11]
  AC50: 6.11 µM (active)
[2]
  IC50: > 100 µM (active)
[12]
  AC50: 12.3 µM (active)

## CCc1ccc(NC(=O)C(=O)NCCN2CCN(Cc3ccc([N+](=O)[O-])cc3)CC2)cc1
Vero
  CC50: 37.7 µM (active)

## N#C/C(=C/c1ccccc1)c1nn(CCO)c(N)c1C#N
[1]
  EC50: 6.55 µM (active)

## Fc1ccc(C(CCCn2nnc(-c3cccnc3)n2)c2ccc(F)cc2)cc1
[13]
  EC50: 2.22 µM (active)
[14]
  EC50: 16.3 µM (active)
H4
  EC50: > 120 µM (not active)
[15]
  CC50: > 40 µM (active)
[16]
  EC50: > 30 µM (not active)
[17]
  EC50: 13.7 µM (active)

## Cc1ccc(-c2csc(NC(=O)C3CCN(S(=O)(=O)c4cccs4)CC3)n2)cc1
Jurkat
  IC50: 8.06 µM (active)
[6]
  IC50: > 80 µM (inactive)
[8]
  IC50: 8.11 µM (active)

## COc1cc(/C=N/Nc2ccc(Cl)c(C(=O)O)c2)ccc1OC(=O)c1cccs1
Leucine aminopeptidase
  IC50: 55.5 µM (active)
[18]
  IC50: 1.32 µM (active)
[19]
  AC50: 5.23 µM (active)

## C/C(=N\NC(=O)c1cccnc1)c1ccc(-n2ccnc2)cc1
[1]
  EC50: 5.46 µM (active)

## CC(=O)OCC1=C(C(=O)O)N2C(=O)[C@@H](NC(=O)Cc3cccs3)[C@H]2SC1 [CEPHALOTHIN SODIUM]
[20]
  IC50: 0.92 µM (active)
